Experimental data taken from the supplement of paper PMC10883282.

Tests used:
Test in all cases: standardised AUC of viability dose-response curve (72 h) (fraction (0-1)); higher = less growth inhibition (more resistant)
[1] = test system: A204
Summary of the method: (§1)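 Sarcoma cell lines in 384-well plates were treated in triplicate for 72 h with 2.5 µl of compound dilution series (compound-plate series 10 mM to 0.0002 mM, 1:3 steps). ATPLite viability was scaled 1 (full) to 0 (none) and fitted per drug and cell line with a four-parameter log-logistic model. The standardised area under the dose-response curve in log-dose space (modified drexplorer computeAUC) runs from 1 (no response) to 0 (full response).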

[2] = test system: G401
Summary of the method: as §1

[3] = test system: HS729
Summary of the method: as §1

[4] = test system: HT1080
Summary of the method: as §1

[5] = test system: KHOS-240S
Summary of the method: as §1

[6] = test system: KHOS-NP
Summary of the method: as §1

[7] = test system: MES-SA
Summary of the method: as §1

[8] = test system: RD-ES
Summary of the method: as §1

[9] = test system: RD
Summary of the method: as §1

[10] = test system: SK-ES-1
Summary of the method: as §1

[11] = test system: SK-LMS-1
Summary of the method: as §1

[12] = test system: SW1353
Summary of the method: as §1

[13] = test system: SW684
Summary of the method: as §1

[14] = test system: SW872
Summary of the method: as §1

[15] = test system: SW982
Summary of the method: as §1

[16] = test system: SYO-1
Summary of the method: as §1

[17] = test system: VA-ES-BJ
Summary of the method: as §1

Row | Compound | standardised AUC [1] | standardised AUC [2] | standardised AUC [3] | standardised AUC [4] | standardised AUC [5] | standardised AUC [6] | standardised AUC [7] | standardised AUC [8] | standardised AUC [9] | standardised AUC [10] | standardised AUC [11] | standardised AUC [12] | standardised AUC [13] | standardised AUC [14] | standardised AUC [15] | standardised AUC [16] | standardised AUC [17]
1 | CCc1nc(C(N)=O)c(Nc2ccc(N3CCC(N4CCN(C)CC4)CC3)c(OC)c2)nc1NC1CCOCC1 [GILTERITINIB] | 0.817 | 0.811 | 0.659 | 0.899 | 0.814 | 0.898 | 0.785 | 0.655 | 0.748 | 0.663 | 0.823 | 0.857 | 0.791 | 0.735 | 0.674 | 0.665 | 0.793
2 | Cc1[nH]c(/C=C2\C(=O)Nc3ccccc32)c(C)c1CCC(=O)O [ORANTINIB] | 0.963 | 0.977 | 0.934 | 0.971 | 0.993 | 0.99 | 0.958 | 0.985 | 0.994 | 0.977 | 0.976 | 0.964 | 0.966 | 0.975 | 0.966 | 0.976 | 0.967
3 | Cc1c2oc3c(C)ccc(C(=O)N[C@@H]4C(=O)N[C@H](C(C)C)C(=O)N5CCC[C@H]5C(=O)N(C)CC(=O)N(C)[C@@H](C(C)C)C(=O)O[C@@H]4C)c3nc-2c(C(=O)N[C@@H]2C(=O)N[C@H](C(C)C)C(=O)N3CCC[C@H]3C(=O)N(C)CC(=O)N(C)[C@@H](C(C)C)C(=O)O[C@@H]2C)c(N)c1=O [DACTINOMYCIN] | 0.365 | 0.348 | 0.504 | 0.464 | 0.408 | 0.451 | 0.258 | 0.418 | 0.432 | 0.272 | 0.566 | 0.492 | 0.778 | 0.56 | 0.396 | 0.444 | 0.453
4 | Cn1cnc2c(F)c(Nc3ccc(Br)cc3Cl)c(C(=O)NOCCO)cc21 [SELUMETINIB] | 0.953 | 0.904 | 0.955 | 0.816 | 0.89 | 0.782 | 0.919 | 0.986 | 0.784 | 0.977 | 0.748 | 0.861 | 0.931 | 0.79 | 0.926 | 0.902 | 0.887
5 | COC(=O)c1ccc2c(c1)NC(=O)/C2=C(\Nc1ccc(N(C)C(=O)CN2CCN(C)CC2)cc1)c1ccccc1 [NINTEDANIB] | 0.624 | 0.859 | 0.88 | 0.96 | 0.858 | 0.961 | 0.967 | 0.896 | 0.93 | 0.832 | 0.943 | 0.966 | 0.953 | 0.978 | 0.941 | 0.672 | 0.982
6 | Cc1cc2c(F)c(Oc3ncnn4cc(OC[C@@H](C)OC(=O)[C@H](C)N)c(C)c34)ccc2[nH]1 [BRIVANIB ALANINATE] | 0.967 | 0.991 | 0.977 | 0.979 | 0.974 | 0.966 | 0.964 | 0.996 | 0.987 | 0.986 | 0.941 | 0.995 | 0.989 | 1 | 1 | 0.943 | 0.994
7 | CNC(=O)c1cccc2cc(Oc3ccnc4cc(OCC5(N)CC5)c(OC)cc34)ccc12 [LUCITANIB] | 0.585 | 0.853 | 0.85 | 1 | 0.901 | 0.994 | 0.908 | 0.964 | 0.985 | 0.95 | 0.94 | 0.893 | 0.973 | 0.985 | 0.975 | 0.74 | 0.994
8 | CN(C)C(=O)c1cc2cnc(Nc3ccc(N4CCNCC4)cn3)nc2n1C1CCCC1 [RIBOCICLIB] | 0.909 | 0.917 | 0.987 | 0.993 | 0.961 | 0.997 | 0.94 | 0.865 | 0.946 | 0.816 | 0.963 | 0.939 | 0.984 | 0.95 | 0.952 | 0.86 | 0.903
9 | COc1cc2ncnc(Nc3ccc(F)c(Cl)c3)c2cc1OCCCN1CCOCC1 [GEFITINIB] | 0.948 | 0.963 | 0.963 | 0.983 | 0.962 | 0.994 | 0.948 | 0.961 | 0.973 | 0.904 | 0.942 | 0.955 | 0.988 | 0.959 | 0.927 | 0.945 | 0.989
10 | CNC(=O)c1c(C)oc2cc(Oc3ncnc4cc(OC)c(OC)cc34)ccc12 [FRUQUINTINIB] | 0.787 | 0.934 | 0.856 | 0.968 | 0.937 | 0.975 | 0.97 | 0.984 | 0.993 | 0.968 | 0.96 | 0.932 | 0.979 | 0.925 | 0.986 | 0.79 | 0.964
11 | CCS(=O)(=O)N1CC(CC#N)(n2cc(-c3ncnc4[nH]ccc34)cn2)C1 [BARICITINIB] | 0.962 | 0.995 | 0.977 | 0.989 | 0.981 | 0.986 | 0.972 | 1 | 1 | 1 | 0.985 | 0.987 | 0.99 | 0.992 | 0.99 | 0.985 | 0.997
12 | CN(C)C/C=C/C(=O)Nc1cc2c(Nc3ccc(F)c(Cl)c3)ncnc2cc1O[C@H]1CCOC1 [AFATINIB] | 0.733 | 0.838 | 0.849 | 0.926 | 0.846 | 0.939 | 0.807 | 0.823 | 0.801 | 0.745 | 0.837 | 0.729 | 0.85 | 0.819 | 0.759 | 0.795 | 0.825
13 | C=CC(=O)N1CCC(CNc2ncnc(N)c2-c2ccc(Oc3ccccc3)cc2)CC1 [EVOBRUTINIB] | 0.943 | 0.979 | 0.929 | 0.984 | 0.981 | 0.995 | 0.98 | 0.989 | 0.996 | 0.945 | 0.981 | 0.947 | 0.998 | 0.987 | 0.994 | 0.975 | 0.992
14 | O=C(c1ccc(F)c(F)c1Nc1ccc(I)cc1F)N1CC(O)([C@@H]2CCCCN2)C1 [COBIMETINIB] | 0.801 | 0.732 | 0.899 | 0.661 | 0.786 | 0.657 | 0.909 | 0.953 | 0.653 | 0.931 | 0.628 | 0.844 | 0.748 | 0.633 | 0.867 | 0.878 | 0.756
15 | CCOc1cc2ncc(C#N)c(Nc3ccc(OCc4ccccn4)c(Cl)c3)c2cc1NC(=O)/C=C/CN(C)C [NERATINIB] | 0.755 | 0.851 | 0.872 | 0.877 | 0.873 | 0.889 | 0.745 | 0.822 | 0.775 | 0.693 | 0.847 | 0.753 | 0.901 | 0.817 | 0.717 | 0.818 | 0.83
16 | CS(=O)(=O)CCNCc1ccc(-c2ccc3ncnc(Nc4ccc(OCc5cccc(F)c5)c(Cl)c4)c3c2)o1 [LAPATINIB] | 0.915 | 0.991 | 0.952 | 0.99 | 0.927 | 0.99 | 0.924 | 0.995 | 0.938 | 0.928 | 0.938 | 0.941 | 0.989 | 0.936 | 0.94 | 0.924 | 0.966
17 | COc1cc(Nc2ncc3c(n2)-c2ccc(Cl)cc2C(c2c(F)cccc2OC)=NC3)ccc1C(=O)O [ALISERTIB] | 0.876 | 0.811 | 0.889 | 0.873 | 0.835 | 0.95 | 0.678 | 0.656 | 0.801 | 0.558 | 0.865 | 0.933 | 0.902 | 0.895 | 0.734 | 0.732 | 0.808
18 | CCN1CCN(c2ccc(Nc3cc(N(C)C(=O)Nc4c(Cl)c(OC)cc(OC)c4Cl)ncn3)cc2)CC1 [INFIGRATINIB] | 0.701 | 0.719 | 0.737 | 0.995 | 0.896 | 0.983 | 0.774 | 0.926 | 0.986 | 0.838 | 0.965 | 0.855 | 0.996 | 0.95 | 0.933 | 0.736 | 0.943
19 | CC(=O)c1c(C)c2cnc(Nc3ccc(N4CCNCC4)cn3)nc2n(C2CCCC2)c1=O [PALBOCICLIB] | 0.806 | 0.903 | 0.949 | 0.96 | 0.863 | 0.96 | 0.808 | 0.792 | 0.946 | 0.721 | 0.967 | 0.922 | 0.928 | 0.887 | 0.789 | 0.772 | 0.78
20 | O=C1CCc2c(Oc3ccc4c(c3)[C@@H]3[C@H](O4)[C@H]3c3nc4cc(C(F)(F)F)ccc4[nH]3)ccnc2N1 [LIFIRAFENIB] | 0.805 | 0.946 | 0.95 | 0.963 | 0.938 | 0.882 | 0.956 | 0.988 | 0.924 | 0.955 | 0.904 | 0.96 | 0.999 | 0.87 | 0.931 | 0.88 | 0.987
21 | CO[C@H]1C[C@@H]2CC[C@@H](C)[C@@](O)(O2)C(=O)C(=O)N2CCCC[C@H]2C(=O)O[C@H]([C@H](C)C[C@@H]2CC[C@@H](OC(=O)C(C)(CO)CO)[C@H](OC)C2)CC(=O)[C@H](C)/C=C(\C)[C@@H](O)[C@@H](OC)C(=O)[C@H](C)C[C@H](C)/C=C/C=C/C=C/1C [TEMSIROLIMUS] | 0.592 | 0.763 | 0.887 | 0.94 | 0.854 | 0.934 | 0.511 | 0.754 | 0.731 | 0.647 | 0.64 | 0.883 | 0.933 | 0.741 | 0.743 | 0.81 | 0.588
22 | O=S(=O)(c1cccc2c(O)nccc12)N1CCCNCC1 [HYDROXYFASUDIL] | 0.98 | 0.99 | 0.917 | 0.999 | 0.975 | 0.981 | 0.967 | 1 | 1 | 0.976 | 0.979 | 0.965 | 0.95 | 0.961 | 0.992 | 0.958 | 0.968
23 | Cc1cc(F)c(C(=O)Nc2cccc(-c3nncn3C(C)C)n2)cc1-n1cnc(C2CC2)c1 [SELONSERTIB] | 0.94 | 0.969 | 0.992 | 1 | 0.977 | 0.962 | 0.959 | 0.985 | 0.995 | 0.953 | 0.988 | 0.999 | 0.981 | 1 | 1 | 0.957 | 0.976
